# From the CheMixHub viscosity set
# ± gives the uncertainty stated by the source.
# Assay: xn = mol fraction of the nth substance listed
smiles,measurement,setting,value
CC(=O)CC(C)C + CC(C)CO,viscosity,"298.15 K, 101 kPa, x2 = 0.4937",0.851 mPa·s
same,viscosity,"303.15 K, 101 kPa, x2 = 0.3997",0.703 mPa·s
same,viscosity,"303.15 K, 101 kPa, x2 = 0.4937",0.786 mPa·s
same,viscosity,"308.15 K, 101 kPa, x2 = 0.3997",0.656 mPa·s
same,viscosity,"308.15 K, 101 kPa, x2 = 0.4937",0.73 mPa·s
O=C1CCCCC1 + CC(C)CO,viscosity,"298.15 K, 101 kPa, x1 = 0.1012",2.58 ± 0.03 mPa·s
same,viscosity,"298.15 K, 101 kPa, x1 = 0.2016",2.15 ± 0.03 mPa·s
same,viscosity,"298.15 K, 101 kPa, x1 = 0.299",1.9 ± 0.02 mPa·s
same,viscosity,"298.15 K, 101 kPa, x1 = 0.3994",1.77 ± 0.02 mPa·s
same,viscosity,"298.15 K, 101 kPa, x1 = 0.5008",1.72 ± 0.02 mPa·s
same,viscosity,"298.15 K, 101 kPa, x1 = 0.5978",1.7 ± 0.02 mPa·s
same,viscosity,"298.15 K, 101 kPa, x1 = 0.6982",1.69 ± 0.02 mPa·s
same,viscosity,"298.15 K, 101 kPa, x1 = 0.7981",1.71 ± 0.02 mPa·s
same,viscosity,"298.15 K, 101 kPa, x1 = 0.8985",1.77 ± 0.02 mPa·s
CC(C)CC(=O)CC(C)C + CC(C)O,viscosity,"293.15 K, 100 kPa, x1 = 0.0818",1.93 ± 0.06 mPa·s
same,viscosity,"293.15 K, 100 kPa, x1 = 0.1619",1.52 ± 0.05 mPa·s
same,viscosity,"293.15 K, 100 kPa, x1 = 0.2451",1.19 ± 0.04 mPa·s
same,viscosity,"293.15 K, 100 kPa, x1 = 0.3518",0.92 ± 0.03 mPa·s
same,viscosity,"293.15 K, 100 kPa, x1 = 0.4413",0.76 ± 0.02 mPa·s
same,viscosity,"293.15 K, 100 kPa, x1 = 0.5637",0.65 ± 0.02 mPa·s
same,viscosity,"293.15 K, 100 kPa, x1 = 0.6549",0.63 ± 0.02 mPa·s
same,viscosity,"293.15 K, 100 kPa, x1 = 0.7367",0.66 ± 0.02 mPa·s
same,viscosity,"293.15 K, 100 kPa, x1 = 0.8528",0.77 ± 0.02 mPa·s
same,viscosity,"293.15 K, 100 kPa, x1 = 0.9379",0.87 ± 0.03 mPa·s
same,viscosity,"298.15 K, 100 kPa, x1 = 0.0818",1.73 ± 0.05 mPa·s
same,viscosity,"298.15 K, 100 kPa, x1 = 0.1619",1.41 ± 0.04 mPa·s
same,viscosity,"298.15 K, 100 kPa, x1 = 0.2451",1.14 ± 0.04 mPa·s
same,viscosity,"298.15 K, 100 kPa, x1 = 0.3518",0.88 ± 0.03 mPa·s
same,viscosity,"298.15 K, 100 kPa, x1 = 0.4413",0.72 ± 0.02 mPa·s
same,viscosity,"298.15 K, 100 kPa, x1 = 0.5637",0.62 ± 0.02 mPa·s
same,viscosity,"298.15 K, 100 kPa, x1 = 0.6549",0.61 ± 0.02 mPa·s
same,viscosity,"298.15 K, 100 kPa, x1 = 0.7367",0.64 ± 0.02 mPa·s
same,viscosity,"298.15 K, 100 kPa, x1 = 0.8528",0.74 ± 0.02 mPa·s
same,viscosity,"298.15 K, 100 kPa, x1 = 0.9379",0.83 ± 0.03 mPa·s
same,viscosity,"303.15 K, 100 kPa, x1 = 0.0818",1.51 ± 0.05 mPa·s
same,viscosity,"303.15 K, 100 kPa, x1 = 0.1619",1.26 ± 0.04 mPa·s
same,viscosity,"303.15 K, 100 kPa, x1 = 0.2451",1.05 ± 0.03 mPa·s
same,viscosity,"303.15 K, 100 kPa, x1 = 0.3518",0.83 ± 0.03 mPa·s
same,viscosity,"303.15 K, 100 kPa, x1 = 0.4413",0.7 ± 0.02 mPa·s
same,viscosity,"303.15 K, 100 kPa, x1 = 0.5637",0.6 ± 0.02 mPa·s
same,viscosity,"303.15 K, 100 kPa, x1 = 0.6549",0.59 ± 0.02 mPa·s
same,viscosity,"303.15 K, 100 kPa, x1 = 0.7367",0.62 ± 0.02 mPa·s
same,viscosity,"303.15 K, 100 kPa, x1 = 0.8528",0.72 ± 0.02 mPa·s
same,viscosity,"303.15 K, 100 kPa, x1 = 0.9379",0.8 ± 0.03 mPa·s
same,viscosity,"308.15 K, 100 kPa, x1 = 0.0818",1.32 ± 0.04 mPa·s
same,viscosity,"308.15 K, 100 kPa, x1 = 0.1619",1.12 ± 0.04 mPa·s
same,viscosity,"308.15 K, 100 kPa, x1 = 0.2451",0.95 ± 0.03 mPa·s
same,viscosity,"308.15 K, 100 kPa, x1 = 0.3518",0.77 ± 0.02 mPa·s
same,viscosity,"308.15 K, 100 kPa, x1 = 0.4413",0.66 ± 0.02 mPa·s
same,viscosity,"308.15 K, 100 kPa, x1 = 0.5637",0.58 ± 0.02 mPa·s
same,viscosity,"308.15 K, 100 kPa, x1 = 0.6549",0.57 ± 0.02 mPa·s
same,viscosity,"308.15 K, 100 kPa, x1 = 0.7367",0.6 ± 0.02 mPa·s
same,viscosity,"308.15 K, 100 kPa, x1 = 0.8528",0.68 ± 0.02 mPa·s
same,viscosity,"308.15 K, 100 kPa, x1 = 0.9379",0.76 ± 0.02 mPa·s
same,viscosity,"313.15 K, 100 kPa, x1 = 0.0818",1.18 ± 0.04 mPa·s
same,viscosity,"313.15 K, 100 kPa, x1 = 0.1619",1.01 ± 0.03 mPa·s
same,viscosity,"313.15 K, 100 kPa, x1 = 0.2451",0.87 ± 0.03 mPa·s
same,viscosity,"313.15 K, 100 kPa, x1 = 0.3518",0.72 ± 0.02 mPa·s
same,viscosity,"313.15 K, 100 kPa, x1 = 0.4413",0.63 ± 0.02 mPa·s
same,viscosity,"313.15 K, 100 kPa, x1 = 0.5637",0.56 ± 0.02 mPa·s
same,viscosity,"313.15 K, 100 kPa, x1 = 0.6549",0.55 ± 0.02 mPa·s
same,viscosity,"313.15 K, 100 kPa, x1 = 0.7367",0.57 ± 0.02 mPa·s
same,viscosity,"313.15 K, 100 kPa, x1 = 0.8528",0.64 ± 0.02 mPa·s
same,viscosity,"313.15 K, 100 kPa, x1 = 0.9379",0.71 ± 0.02 mPa·s
same,viscosity,"318.15 K, 100 kPa, x1 = 0.0818",1.05 ± 0.03 mPa·s
same,viscosity,"318.15 K, 100 kPa, x1 = 0.1619",0.92 ± 0.03 mPa·s
same,viscosity,"318.15 K, 100 kPa, x1 = 0.2451",0.8 ± 0.03 mPa·s
same,viscosity,"318.15 K, 100 kPa, x1 = 0.3518",0.67 ± 0.02 mPa·s
same,viscosity,"318.15 K, 100 kPa, x1 = 0.4413",0.6 ± 0.02 mPa·s
same,viscosity,"318.15 K, 100 kPa, x1 = 0.5637",0.54 ± 0.02 mPa·s
same,viscosity,"318.15 K, 100 kPa, x1 = 0.6549",0.53 ± 0.02 mPa·s
same,viscosity,"318.15 K, 100 kPa, x1 = 0.7367",0.55 ± 0.02 mPa·s
same,viscosity,"318.15 K, 100 kPa, x1 = 0.8528",0.61 ± 0.02 mPa·s
same,viscosity,"318.15 K, 100 kPa, x1 = 0.9379",0.67 ± 0.02 mPa·s
same,viscosity,"323.15 K, 100 kPa, x1 = 0.0818",0.93 ± 0.03 mPa·s
same,viscosity,"323.15 K, 100 kPa, x1 = 0.1619",0.82 ± 0.03 mPa·s
same,viscosity,"323.15 K, 100 kPa, x1 = 0.2451",0.72 ± 0.02 mPa·s
same,viscosity,"323.15 K, 100 kPa, x1 = 0.3518",0.63 ± 0.02 mPa·s
same,viscosity,"323.15 K, 100 kPa, x1 = 0.4413",0.57 ± 0.02 mPa·s
same,viscosity,"323.15 K, 100 kPa, x1 = 0.5637",0.52 ± 0.02 mPa·s
same,viscosity,"323.15 K, 100 kPa, x1 = 0.6549",0.51 ± 0.02 mPa·s
same,viscosity,"323.15 K, 100 kPa, x1 = 0.7367",0.53 ± 0.02 mPa·s
same,viscosity,"323.15 K, 100 kPa, x1 = 0.8528",0.58 ± 0.02 mPa·s
same,viscosity,"323.15 K, 100 kPa, x1 = 0.9379",0.63 ± 0.02 mPa·s
